Assay results taken from patent US20240376099A1, “COMPOUNDS AND COMPOSITIONS AS INHIBITORS OF ENDOSOMAL TOLL-LIKE RECEPTORS” (Novartis AG, priority 2016, published 2024).

These compounds were tested against T1, TLR7 (Homo sapiens, UniProt Q9NYK1) (assay: huPBMC TLR7 Antagonist IFNα Assay). Settings: human PBMCs stimulated with ssRNA40 10 μg/mL (DOTAP), 14-16 hrs; IFNα2b AlphaLISA read-out.
T1 construct: Fresh blood was collected from normal human donors; endogenous in cells; host or cells: human PBMCs from fresh donor blood
T1 sequence (Q9NYK1 27-1049): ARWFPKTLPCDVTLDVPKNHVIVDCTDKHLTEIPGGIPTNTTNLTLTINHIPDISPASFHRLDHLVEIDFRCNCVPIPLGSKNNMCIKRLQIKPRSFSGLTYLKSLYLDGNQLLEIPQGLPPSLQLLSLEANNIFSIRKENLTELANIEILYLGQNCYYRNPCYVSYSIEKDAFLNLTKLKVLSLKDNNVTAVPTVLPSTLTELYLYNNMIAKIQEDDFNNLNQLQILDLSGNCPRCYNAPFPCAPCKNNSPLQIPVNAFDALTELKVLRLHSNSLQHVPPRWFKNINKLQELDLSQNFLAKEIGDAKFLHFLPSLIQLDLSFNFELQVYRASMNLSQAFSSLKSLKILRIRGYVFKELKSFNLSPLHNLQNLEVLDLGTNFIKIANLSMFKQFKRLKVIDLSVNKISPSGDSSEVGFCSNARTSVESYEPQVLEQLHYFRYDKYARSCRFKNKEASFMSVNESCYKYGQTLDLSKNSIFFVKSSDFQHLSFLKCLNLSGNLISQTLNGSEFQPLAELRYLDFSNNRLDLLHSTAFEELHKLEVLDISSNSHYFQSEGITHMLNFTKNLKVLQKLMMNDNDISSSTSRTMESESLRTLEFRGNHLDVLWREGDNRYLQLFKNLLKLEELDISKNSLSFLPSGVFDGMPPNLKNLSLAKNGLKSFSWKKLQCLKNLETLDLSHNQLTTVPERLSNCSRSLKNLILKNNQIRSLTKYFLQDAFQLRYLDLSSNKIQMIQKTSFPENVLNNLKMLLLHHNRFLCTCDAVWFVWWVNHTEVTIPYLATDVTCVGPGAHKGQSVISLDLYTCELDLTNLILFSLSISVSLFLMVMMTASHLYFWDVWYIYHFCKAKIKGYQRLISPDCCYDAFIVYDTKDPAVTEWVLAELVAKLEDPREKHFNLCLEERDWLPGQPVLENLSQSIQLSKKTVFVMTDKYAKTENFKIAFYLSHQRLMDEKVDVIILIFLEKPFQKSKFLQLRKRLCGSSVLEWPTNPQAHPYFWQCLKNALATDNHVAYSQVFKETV
Format: cell-based
Procedure, shortened: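 Human PBMCs from fresh donor blood (150,000 cells/well) stimulated 14–16 h at 37 °C with DOTAP-complexed ssRNA40 (final 1 μg/ml for TLR8, 10 μg/mL for TLR7) or ODN2216 (final 0.3 μM, TLR9), 0.25% DMSO, ten-point 1/3 compound dilutions. Supernatant IL-6 read by HTRF (TLR8); IFNα by IFNα2b AlphaLISA (TLR7/TLR9).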

SMILES	IC50 [nM]
Cn1ncc2c(N3CCc4c(cnn4CC45CCC(N)(CC4)CC5)C3)nc(N)nc21 [compound 11, 4-(1-((4-aminobicyclo[2.2.2]octan-1-yl)methyl)-6,7-dihydro-1H-pyrazolo[4,3-c]pyridin-5(4H)-yl)-1-methyl-1H-pyrazolo[3,4-d]pyrimidin-6-amine]	318
Cn1ncc2c(N3CCc4nn(CC56CCC(N)(CC5)CC6)cc4C3)nc(N)nc21 [compound 12, 4-(2-((4-aminobicyclo[2.2.2]octan-1-yl)methyl)-6,7-dihydro-2H-pyrazolo[4,3-c]pyridin-5(4H)-yl)-1-methyl-1H-pyrazolo[3,4-d]pyrimidin-6-amine]	841
Cc1nn(CC23CCC(N)(CC2)CC3)c2c1CN(c1nc(N)nc3c1cnn3C)CC2 [compound 13, 4-(1-((4-aminobicyclo[2.2.2]octan-1-yl)methyl)-3-methyl-6,7-dihydro-1H-pyrazolo[4,3-c]pyridin-5(4H)-yl)-1-methyl-1H-pyrazolo[3,4-d]pyrimidin-6-amine]	42
Cc1c2c(nn1CC13CCC(N)(CC1)CC3)CCN(c1nc(N)nc3c1cnn3C)C2 [compound 14, 4-(2-((4-aminobicyclo[2.2.2]octan-1-yl)methyl)-3-methyl-6,7-dihydro-2H-pyrazolo[4,3-c]pyridin-5(4H)-yl)-1-methyl-1H-pyrazolo[3,4-d]pyrimidin-6-amine]	241
Cc1nn(CC23CCC(N)(CC2)CC3)c2c1CN(c1nc(Cl)nc3cnn(C)c13)CC2 [compound 15, 4-((5-(5-chloro-1-methyl-1H-pyrazolo[4,3-d]pyrimidin-7-yl)-3-mehtyl-4,5,6,7-tetrahydro-1H-pyrazolo[4,3-c]pyridin-1-yl)methyl)bicyclo[2.2.2]octan-1-amine]	288
Cc1nc(N2CCc3c(c(C)nn3CC34CCC(N5CCCC5)(CC3)CC4)C2)c2cnn(C)c2n1 [compound 16, 1,6-dimethyl-4-(3-methyl-1-((4-(pyrrolidin-1-yl)bicyclo[2.2.2]octan-1-yl)methyl)-6,7-dihydro-1H-pyrazolo[4,3-c]pyridin-5(4H)-yl)-1H-pyrazolo[3,4-d]pyrimidine]	25
Cc1nc(N2CCc3c(c(C)nn3CC34CCC(N5CCCC5)(CC3)CC4)C2)c2c(n1)c(C)nn2C [compound 17, 1,3,5-trimethyl-7-(3-methyl-1-((4-(pyrrolidin-1-yl)bicyclo[2.2.2]octan-1-yl)methyl)-6,7-dihydro-1H-pyrazolo[4,3-c]pyridin-5(4H)-yl)-1H-pyrazolo[4,3-d]pyrimidine]	258
COCCNC12CCC(Cn3nc(C)c4c3CCN(c3nc(C)nc5c(C)nn(C)c35)C4)(CC1)CC2 [compound 18, N-(2-methoxyethyl)-4-((3-methyl-5-(1,3,5-trimethyl-1H-pyrazolo[4,3-d]pyrimidin-7-yl)-4,5,6,7-tetrahydro-1H-pyrazolo[4,3-c]pyridin-1-yl)methyl)bicyclo[2.2.2]octan-1-amine]	245
Cc1nc(N2CCc3c(c(C)nn3CC34CCC(N5CCOCC5)(CC3)CC4)C2)c2cnn(C)c2n1 [compound 19, 4-(4-((5-(1,6-dimethyl-1H-pyrazolo[3,4-d]pyrimidin-4-yl)-3-methyl-4,5,6,7-tetrahydro-1H-pyrazolo[4,3-c]pyridin-1-yl)methyl)bicyclo[2.2.2]octan-1-yl)morpholine]	55
CCNCC(=O)NC12CCC(Cn3nc(C)c4c3CCN(c3nc(C)nc5[nH]ncc35)C4)(CC1)CC2 [compound 20, 2-(ethylamino)-N-(4-((3-methyl-5-(6-methyl-1H-pyrazolo[3,4-d]pyrimidin-4-yl)-4,5,6,7-tetrahydro-1H-pyrazolo[4,3-c]pyridin-1-yl)methyl)bicyclo[2.2.2]octan-1-yl)acetamide]	25
Cc1nc(N2CCc3c(c(C)nn3CC34CCC(N5CCOCC5)(CC3)CC4)C2)c2cn[nH]c2n1 [compound 21, 4-(4-((3-methyl-5-(6-methyl-1H-pyrazolo[3,4-d]pyrimidin-4-yl)-4,5,6,7-tetrahydro-1H-pyrazolo[4,3-c]pyridin-1-yl)methyl)bicyclo[2.2.2]octan-1-yl)morpholine]	24
CCNCC(=O)NC12CCC(Cn3nc(C)c4c3CCN(c3nc(C)nc5c(C)nn(C)c35)C4)(CC1)CC2 [compound 22, 2-(ethylamino)-N-(4-((3-methyl-5-(1,3,5-trimethyl-1H-pyrazolo[4,3-c]pyrimidin-7-yl)-4,5,6,7-tetrahydro-1H-pyrazolo[4,3-c]pyridin-1-yl)methyl)bicyclo[2.2.2]octan-1-yl)acetamide]	33
Cc1nc(N2CCc3c(c(C)nn3CC34CCC(NCC5COC5)(CC3)CC4)C2)c2c(n1)c(C)nn2C [compound 23, 4-((3-methyl-5-(1,3,5-trimethyl-1H-pyrazolo[4,3-c]pyrimidin-7-yl)-4,5,6,7-tetrahydro-1H-pyrazolo[4,3-c]pyridin-1-yl)methyl)-N-(oxetan-3-ylmethyl)bicyclo[2.2.2]octan-1-amine]	666
Cc1nc(N2CCc3c(c(C)nn3CC34CCC(NC(=O)CCN(C)C)(CC3)CC4)C2)c2c(n1)c(C)nn2C [compound 24, 3-(dimethyalmino)-N-(4-((3-methyl-5-(1,3,5-trimethyl-1H-pyrazolo[4,3-d]pyrimidin-7-yl)-4,5,6,7-tetrahydro-1H-pyrazolo[4,3-c]pyridin-1-yl)methyl)bicyclo[2.2.2]octan-1-yl)propanamide]	201
Cc1nc(N2CCc3c(c(C)nn3CC34CCC(N5CCOCC5)(CC3)CC4)C2)c2c(n1)c(C)nn2C [compound 25, 4-(4-((3-methyl-5-(1,3,5-trimethyl-1H-pyrazolo[4,3-d]pyrimidin-7-yl)-4,5,6,7-tetrahydro-1H-pyrazolo[4,3-c]pyridin-1-yl)methyl)bicyclo[2.2.2]octan-1-yl)morpholine]	565
Cc1nc(N2CCc3c(c(C)nn3CC34CCC(NC5CCC5)(CC3)CC4)C2)c2c(n1)c(C)nn2C [compound 27, N-cyclobutyl-4-((3-methyl-5-(1,3,5-trimethyl-1H-pyrazolo[4,3-d]pyrimidin-7-yl)-4,5,6,7-tetrahydro-1H-pyrazolo[4,3-c]pyridin-1-yl)methyl)bicyclo[2.2.2]octan-1-amine]	15
Cc1nc(N2CCc3c(c(C)nn3CC34CCC(N(C5CCC5)C5CCC5)(CC3)CC4)C2)c2c(n1)c(C)nn2C [compound 28, N,N-dicyclobutyl-4-((3-methyl-5-(1,3,5-trimethyl-1H-pyrazolo[4,3-d]pyrimidin-7-yl)-4,5,6,7-tetrahydro-1H-pyrazolo[4,3-c]pyridin-1-yl)methyl)bicyclo[2.2.2]octan-1-amine]	840
Cc1nc(N2CCc3c(c(C)nn3CC34CCC(N5CCCCC5)(CC3)CC4)C2)c2cn[nH]c2n1 [compound 29, 6-methyl-4-(3-methyl-1-((4-(piperidin-1-yl)bicyclo[2.2.2]octan-1-yl)methyl)-6,7-dihydro-1H-pyrazolo[4,3-c]pyridin-5(4H)-yl)-1H-pyrazolo[3,4-d]pyrimidine]	73
Cc1nc(N2CCc3c(c(C)nn3CC34CCC(N5CCCC5)(CC3)CC4)C2)c2cn[nH]c2n1 [compound 30, 6-methyl-4-(3-methyl-1-((4-(pyrrolidin-1-yl)bicyclo[2.2.2]octan-1-yl)methyl)-6,7-dihydro-1H-pyrazolo[4,3-c]pyridin-5(4H)-yl)-1H-pyrazolo[3,4-d]pyrimidine]	10
Cc1nc(N2CCc3c(c(C)nn3CC34CCC(NCC5(CO)COC5)(CC3)CC4)C2)c2c(n1)c(C)nn2C [compound 31, (3-(((4-((3-methyl-5-(1,3,5-trimethyl-1H-pyrazolo[4,3-d]pyrimidin-7-yl)-4,5,6,7-tetrahydro-1H-pyrazolo[4,3-c]pyridin-1-yl)methyl)bicyclo[2.2.2]octan-1-yl)amino)methyl)oxetan-3-yl)methanol]	13
Cc1nc(N2CCc3c(c(C)nn3CC34CCC(NC(=O)[C@@H]5COCCN5)(CC3)CC4)C2)c2c(n1)c(C)nn2C [compound 33, (S)-N-(4-((3-methyl-5-(1,3,5-trimethyl-1H-pyrazolo[4,3-d]pyrimidin-7-yl)-4,5,6,7-tetrahydro-1H-pyrazolo[4,3-c]pyridin-1-yl)methyl)bicyclo[2.2.2]octan-1-yl)morpholine-3-carboxamide]	55
